Results reported in US5302591A, “Benzodiazepine derivatives” (Merck Sharpe & Dohme Ltd., priority 1992, dated 1994).

Legend:
CCK receptor (pancreas) = molecular target: T1, CCK receptor (pancreas) (Rattus norvegicus, UniProt P30551); test: CCK Receptor Binding (Pancreas), inhibition of 125I-CCK-8 binding; parameters: species or system rat (male Sprague-Dawley); conditions: rat pancreas membranes, 50 pM 125I-CCK-8, pH 6.5, 25° C., 2 hours
T1 construct: The whole pancreas was dissected free of fat tissue and was homogenized; from tissue; host or cells: rat whole pancreas membranes
T1 sequence (P30551 1-444): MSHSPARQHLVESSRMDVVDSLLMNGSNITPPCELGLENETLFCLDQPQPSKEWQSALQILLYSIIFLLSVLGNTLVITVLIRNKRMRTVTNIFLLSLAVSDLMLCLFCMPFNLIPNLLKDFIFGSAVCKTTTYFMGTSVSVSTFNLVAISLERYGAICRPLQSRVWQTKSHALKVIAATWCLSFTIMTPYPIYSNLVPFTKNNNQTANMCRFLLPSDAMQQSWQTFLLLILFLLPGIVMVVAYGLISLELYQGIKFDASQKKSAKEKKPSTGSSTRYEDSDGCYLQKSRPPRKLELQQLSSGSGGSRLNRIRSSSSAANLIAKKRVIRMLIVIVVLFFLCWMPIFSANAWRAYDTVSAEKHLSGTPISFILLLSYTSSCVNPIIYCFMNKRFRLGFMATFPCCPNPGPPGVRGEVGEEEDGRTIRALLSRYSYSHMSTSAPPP
Description: 1. CCK Receptor Binding (Pancreas)
CCK-8 sulphated was radiolabelled with ^125 I-Bolton Hunter reagent (2000 Ci/mmole). Receptor binding was performed according to Chang and Lotti (Proc. Natl. Acad. Sci. 83, 4923-4926, 1986) with minor modifications.
Male Sprague-Dawley rats (150-200 g) were sacrificed by decapitation. The whole pancreas was dissected free of fat tissue and was homogenized in 25 volumes of ice-cold 10 mM N-2-hydroxyethyl-piperazine-N'-2-ethane sulphonic acid (HEPES) buffer with 0.1% soya bean trypsin inhibitor (pH 7.4 at 25° C.) with a Kinematica Polytron. The homogenates were centrifuged at 47,800 g for 10 min. Pellets were resuspended in 10 volumes of binding assay buffer (20 mM (HEPES)), 1 mM ethylene glycol-bis-(β-aminoethylether-N,N'-tetraacetic acid) (EGTA), 5 mM MgCl2, 150 mM NaCl, bacitracin 0.25 mg/ml, soya bean trypsin inhibitor 0.1 mg/ml, and bovine serum albumin 2 mg/ml pH 6.5 at 25° C.) using a Teflon (trademark) homogenizer, 15 strokes at 500 rpm. The homogenate was further diluted in binding assay buffer to give a final concentration of 0.5 mg original wet weight/1 ml buffer. […] The radioactivity on the filters was counted with a LKB gamma counter. […]

CCK receptor (brain) = molecular target: T2, CCK receptor (brain) (Cavia porcellus, UniProt H0VZC5); test: CCK Receptor Binding (Brain), inhibition of 125I-CCK-8 binding; parameters: species or system guinea pig (male Hartley); conditions: guinea pig cortex membranes, 50 pM 125I-CCK-8, pH 6.5, 25° C., 2 hours
T2 construct: the cortex was removed and homogenized in 25 mL ice-cold 0.32M sucrose; from tissue; host or cells: guinea pig brain cortex P2 membranes
T2 sequence (H0VZC5 entry or part of it): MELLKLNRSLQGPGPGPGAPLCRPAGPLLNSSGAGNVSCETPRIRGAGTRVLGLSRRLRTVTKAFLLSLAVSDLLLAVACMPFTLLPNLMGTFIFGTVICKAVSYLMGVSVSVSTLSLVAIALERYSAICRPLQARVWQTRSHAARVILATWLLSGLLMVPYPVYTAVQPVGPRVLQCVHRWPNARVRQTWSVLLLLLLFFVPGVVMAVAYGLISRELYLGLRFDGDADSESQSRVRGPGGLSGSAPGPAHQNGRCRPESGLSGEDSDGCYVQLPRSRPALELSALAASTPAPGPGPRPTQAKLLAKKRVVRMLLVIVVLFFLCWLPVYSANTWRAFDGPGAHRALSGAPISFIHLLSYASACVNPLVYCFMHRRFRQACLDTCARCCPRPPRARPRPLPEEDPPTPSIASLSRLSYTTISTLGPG
Description: 2. CCK Receptor Binding (Brain)
CCK-8 sulphated was radiolabelled and the binding was performed according to the description for the pancreas method with minor modifications.
Male Hartley guinea pigs (300-500 g) were sacrificed by decapitation and the cortex was removed and homogenized in 25 mL ice-cold 0.32M sucrose. The homogenates were centrifuged at 1000 g for 10 minutes and the resulting supernatant was recentrifuged at 20,000 g for 20 minutes. The P2 pellet was resuspended in binding assay buffer (20 mM HEPES, 5 mM MgCl2, 0.25 mg/ml bacitracin, 1 mM EGTA pH 6.5 at 25° C.), using a Teflon (trademark) homogenizer (5 strokes at 500 rpm) to give a final concentration of 10 mg original wet weight/1.2 ml buffer. For the binding assay, 50 μl of buffer (for total binding) or unlabelled CCK-8 sulphated to give a final concentration of 1 μM (for nonspecific binding) or the compounds of Formula I (for determination of inhibition of ^125 I-CCK-8 binding) and 50 μl of 500 pM ^125 I-CCK-8 (i.e. final concentration of 50 pM) were added to 400 μl of the membrane suspensions in microfuge tubes. All assays were run in duplicate. […] The radioactivity on the filters was counted with a LKB gamma counter. […]

SMILES | IC50 (CCK receptor (pancreas)) [nM] | IC50 (CCK receptor (brain)) [nM]
CN1C(=O)C(NC(=O)Nc2cccc(C(=O)NS(=O)(=O)c3ccccc3)c2)N=C(c2ccncc2)c2ccccc21 (racemic) [Example 1, N-[3(R,S)-2,3-Dihydro-1-methyl-2-oxo-5-(pyridin-4-yl)-1H-1,4-benzodiazepin-3-yl]-N'-[3-(phenylsulphonylaminocarbonyl)phenyl]urea] | 790 | 130
CC(C)S(=O)(=O)NC(=O)c1cccc(NC(=O)NC2N=C(c3ccncc3)c3ccccc3N(C)C2=O)c1 (racemic) [Example 2, N-[3(R,S)-2,3-Dihydro-1-methyl-2-oxo-5-(pyridin-4-yl)-1H-1,4-benzodiazepin-3-yl)-N'-[3-(isopropylsulphonylaminocarbonyl)phenyl]urea] | 1630 | 300
